Reference: ChEMBL document CHEMBL5512666, “Selenization of Small Molecule Drugs: A New Player on the Board” (J Med Chem, 2024)
≈ marks a conversion by molar mass, not a printed value.

Legend:
OVCAR-3 = experiment: Antiproliferative activity against human OVCAR-3 cells; assay type: functional, cell-based
[1] = Antiproliferative activity against human OVCAR-10 cells; assay type: functional, cell-based
ES-2 = experiment: Antiproliferative activity against human ES2 cells; assay type: functional, cell-based
[2] = Antiproliferative activity against human HEY A8 cells; assay type: functional, cell-based
HEK-293T = experiment: Antiproliferative activity against HEK293T; assay type: functional, cell-based; conditions: Homo sapiens
HeLa = experiment: Cytotoxicity against human HeLa cells assessed as inhibition of cell growth incubated for 96 hrs by MTT assay; assay type: functional, cell-based
HepG2 = experiment: Cytotoxicity against human HepG2 cells assessed as inhibition of cell growth incubated for 96 hrs by MTT assay; assay type: functional, cell-based; conditions: HepG2, 96 h
A549 = experiment: Cytotoxicity against human A549 cells assessed as inhibition of cell growth incubated for 96 hrs by MTT assay; assay type: functional, cell-based; conditions: A549, 96 h
SMMC-7721 = experiment: Cytotoxicity against human SMMC-7721 cells assessed as inhibition of cell growth incubated for 96 hrs by MTT assay; assay type: functional, cell-based; conditions: SMMC-7721, 96 h
Human alphaherpesvirus 1 = experiment: Antiviral activity against HSV-1 infected in African green monkey Vero cells assessed as reduction in virus-induced cytopathic effect incubated for 3 days by MTT assay; assay type: functional, organism-based; conditions: Human alphaherpesvirus 1, Vero, 72 h
Human alphaherpesvirus 2 = experiment: Antiviral activity against HSV-2 infected in African green monkey Vero cells assessed as reduction in virus-induced cytopathic effect incubated for 3 days by MTT assay; assay type: functional, organism-based; conditions: Human alphaherpesvirus 2, Vero, 72 h
Human alphaherpesvirus 3 = experiment: Antiviral activity against VZV infected in African green monkey Vero cells assessed as reduction in virus-induced cytopathic effect incubated for 3 days by MTT assay; assay type: functional, organism-based; conditions: Human alphaherpesvirus 3, Vero, 72 h
Human betaherpesvirus 5 = experiment: Antiviral activity against […] infected in African green monkey Vero cells assessed as reduction in virus-induced cytopathic effect incubated for 3 days by MTT assay; assay type: functional, organism-based; conditions: Human betaherpesvirus 5, Vero, 72 h
[3] = Antioxidant activity assessed as inhibition of peroxynitrite mediated L-tyrosine nitration in sodium phosphate buffer at pH 7.5 incubated for 7 mins by RP-HPLC analysis; assay type: functional
Candida albicans [4] = experiment: Antifungal activity against azole-resistant Candida albicans clinical isolate CaR assessed as fungal growth inhibition incubated for 24 hrs by CLSI protocol based broth microdilution method; assay type: functional
Candida albicans [5] = experiment: Antifungal activity against azole-resistant Candida albicans clinical isolate 17 assessed as fungal growth inhibition incubated for 24 hrs by CLSI protocol based broth microdilution method; assay type: functional
Candida albicans [6] = experiment: Antifungal activity against azole-resistant Candida albicans clinical isolate 632 assessed as fungal growth inhibition incubated for 24 hrs by CLSI protocol based broth microdilution method; assay type: functional
Candida albicans [7] = experiment: Antifungal activity against azole-resistant Candida albicans clinical isolate 901 assessed as fungal growth inhibition incubated for 24 hrs by CLSI protocol based broth microdilution method; assay type: functional
Candida albicans [8] = experiment: Antifungal activity against azole-resistant Candida albicans clinical isolate 904 assessed as fungal growth inhibition incubated for 24 hrs by CLSI protocol based broth microdilution method; assay type: functional
[9] = Cytotoxicity against human A549 cells assessed as reduction in cell viability incubated for 96 hrs by MTT assay; assay type: toxicity, cell-based
[10] = Cytotoxicity against human MDA-MB-231 cells assessed as reduction in cell viability incubated for 96 hrs by MTT assay; assay type: toxicity, cell-based
[11] = Cytotoxicity against human SGC cells assessed as reduction in cell viability incubated for 96 hrs by MTT assay; assay type: toxicity, cell-based
Lactoperoxidase = Lactoperoxidase (Homo sapiens, UniProt P22079); experiment: Inhibition of LPO (unknown origin)-mediated L-tyrosine nitration incubated for 20 mins in presence of H2O2 and sodium nitrite by RP-HPLC analysis
[12] = Antioxidant activity assessed as reduction in peroxynitrite mediated L-tyrosine nitration by measuring remaining activity relative to control; assay type: functional; set-up: concentration or dose not given beside the values
Candida albicans [13] = experiment: Antifungal activity against Candida albicans CPCC 400616; assay type: functional
Candida albicans [14] = experiment: Antifungal activity against Candida albicans SC5314; assay type: functional
Cryptococcus neoformans = experiment: Antifungal activity against Cryptococcus neoformans CGMCC 2.3161; assay type: functional
Pichia kudriavzevii = experiment: Antifungal activity against Candida krusei AS 2.1045; assay type: functional
Candida tropicalis = experiment: Antifungal activity against Candida tropicalis CGMCC 2.3739; assay type: functional
Nakaseomyces glabratus = experiment: Antifungal activity against Candida glabrata; assay type: functional
Candida parapsilosis = experiment: Antifungal activity against Candida parapsilosis 22019; assay type: functional; conditions: Lodderomyces parapsilosis
Aspergillus fumigatus = experiment: Antifungal activity against Aspergillus fumigatus CGMCC 3.7795; assay type: functional
[15] = Stability in rat plasma assessed as half life; assay type: ADME, cell-free
MHCC97H = experiment: Antiproliferative activity against human MHCC97H cells assessed as reduction in cell viability incubated for 48 hrs by MTT assay; assay type: functional, cell-based
[16] = Inhibition of TrxR (unknown origin) expressed in MHCC97H cells incubated for 24 hrs by colorimetric assay; assay type: cell-based, Homo sapiens

Sequence of Lactoperoxidase (P22079 whole entry): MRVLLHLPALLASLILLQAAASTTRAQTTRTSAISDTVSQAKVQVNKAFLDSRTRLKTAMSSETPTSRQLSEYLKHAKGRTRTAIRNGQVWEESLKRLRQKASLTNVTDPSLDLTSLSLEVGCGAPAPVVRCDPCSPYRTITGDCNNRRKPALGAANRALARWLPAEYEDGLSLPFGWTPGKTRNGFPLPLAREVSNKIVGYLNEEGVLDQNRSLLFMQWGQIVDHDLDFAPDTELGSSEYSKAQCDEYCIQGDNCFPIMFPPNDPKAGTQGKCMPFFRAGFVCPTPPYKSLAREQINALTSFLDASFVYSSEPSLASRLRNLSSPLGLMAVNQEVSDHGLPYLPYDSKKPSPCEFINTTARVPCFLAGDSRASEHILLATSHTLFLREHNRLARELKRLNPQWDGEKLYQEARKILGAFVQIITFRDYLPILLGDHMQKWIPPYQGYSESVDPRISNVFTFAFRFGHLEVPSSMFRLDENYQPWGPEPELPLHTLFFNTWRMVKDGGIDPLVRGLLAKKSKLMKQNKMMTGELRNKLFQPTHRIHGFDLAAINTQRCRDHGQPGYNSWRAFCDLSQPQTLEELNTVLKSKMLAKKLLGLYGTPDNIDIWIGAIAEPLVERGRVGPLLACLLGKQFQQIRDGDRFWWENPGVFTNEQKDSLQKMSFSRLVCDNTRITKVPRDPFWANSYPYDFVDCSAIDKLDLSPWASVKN

`C[Se]C(=O)CCCC[C@@H]1SC[C@@H]2NC(=O)N[C@@H]21` gave an IC50 (OVCAR-3) of 22.3 µM, an IC50 [1] of 24.9 µM and an IC50 (ES-2) of 9.84 µM. It also gave an IC50 [2] of 20.2 µM and an IC50 (HEK-293T) of 31.5 µM.

`Nc1ccn([C@@H]2O[C@H](CO)[C@@H](O)C2(F)F)c(=O)n1` [GEMCITABINE] gave an IC50 (HeLa) of 3.9 µM, an IC50 (HepG2) of 2.46 µM and an IC50 (A549) of 0.69 µM. The IC50 (SMMC-7721) was 0.46 µM.

For `CNC1NC(N)=Nc2c1ncn2C[Se]CCO` (stereo not given), the EC50 (Human alphaherpesvirus 1) was 14.3 µM, the EC50 (Human alphaherpesvirus 2) was 17.6 µM and the EC50 (Human alphaherpesvirus 3) was > 100 µM. For the same compound, the EC50 (Human betaherpesvirus 5) was > 100 µM.

`COc1cccc(Cn2ccn(C)c2=[Se])c1` showed an IC50 [3] of 7.8 µM.

Compound `Clc1ccc(-c2nn[se]c2-n2ccnc2)c(Cl)c1` has an MIC (Candida albicans [4]) of 1 µg/mL (≈ 2.91 µM), an MIC (Candida albicans [5]) of 16 µg/mL (≈ 46.5 µM) and an MIC (Candida albicans [6]) of 16 µg/mL (≈ 46.5 µM). The MIC (Candida albicans [7]) was 32 µg/mL (≈ 93 µM), the MIC (Candida albicans [8]) was 16 µg/mL (≈ 46.5 µM) and the IC50 at 96 h [9] was 16.2 µg/mL (≈ 47 µM). The IC50 at 96 h [10] was 14.7 µg/mL (≈ 42.7 µM) and the IC50 at 96 h [11] was 14.6 µg/mL (≈ 42.5 µM).

`Cn1cc[nH]c1=S` [METHIMAZOLE] showed an IC50 (Lactoperoxidase) of 0.51 µM.

With `CC[Se]C(=O)CCCC[C@@H]1SC[C@@H]2NC(=O)N[C@@H]21` the IC50 (OVCAR-3) was 34.2 µM, the IC50 [1] was 40.4 µM and the IC50 (ES-2) was 14.5 µM. The IC50 [2] was 12.8 µM and the IC50 (HEK-293T) was 38.8 µM.

`Clc1ccc(-c2nn[se]c2-n2cncn2)c(Cl)c1` gave an MIC (Candida albicans [4]) of 4 µg/mL (≈ 11.6 µM), an MIC (Candida albicans [5]) of 4 µg/mL (≈ 11.6 µM) and an MIC (Candida albicans [6]) of 16 µg/mL (≈ 46.4 µM). For the same compound, the MIC (Candida albicans [7]) was 8 µg/mL (≈ 23.2 µM), the MIC (Candida albicans [8]) was 32 µg/mL (≈ 92.7 µM) and the IC50 at 96 h [9] was 16.9 µg/mL (≈ 49.1 µM). The IC50 at 96 h [10] was 23.5 µg/mL (≈ 68.1 µM) and the IC50 at 96 h [11] was 19.5 µg/mL (≈ 56.5 µM).

In the case of `Cn1ccnc1S` [METHIMAZOLE], the IC50 [3] is reported as 23.9 µM and the Activity [12] is reported as 32.5%.

Work on `Cc1ccccc1[Se]C(Cn1ccnc1)c1ccc(Cl)cc1` (stereo not given) yielded an MIC (Candida albicans [13]) of 0.06 µg/mL (≈ 0.16 µM), an MIC (Candida albicans [14]) of 0.03 µg/mL (≈ 0.0798 µM) and an MIC (Cryptococcus neoformans) of 0.5 µg/mL (≈ 1.33 µM). For the same compound, the MIC (Pichia kudriavzevii) was 0.13 µg/mL (≈ 0.346 µM), the MIC (Candida tropicalis) was 0.03 µg/mL (≈ 0.0798 µM) and the MIC (Nakaseomyces glabratus) was 0.5 µg/mL (≈ 1.33 µM). The MIC (Candida parapsilosis) was 0.5 µg/mL (≈ 1.33 µM), the MIC (Aspergillus fumigatus) was 4 µg/mL (≈ 10.6 µM) and the half-life [15] was > 6 h.

For `N#Cc1cccc(-c2ccc(=O)n(Cc3cccc(-c4ncc([Se]CCN5CCCC5)cn4)c3)n2)c1`, the IC50 (MHCC97H) was 0.063 µM and the IC50 [16] was 0.8 µM.

In the case of `CCCc1cc(=O)[nH]c(=S)[nH]1` [PROPYLTHIOURACIL], the IC50 [3] is reported as 95 µM.

In the case of `CNC1NC(N)=Nc2c1ncn2C[Se]C(CO)CO` (stereo not given), the EC50 (Human alphaherpesvirus 1) is reported as > 100 µM, the EC50 (Human alphaherpesvirus 2) is reported as > 100 µM and the EC50 (Human alphaherpesvirus 3) is reported as > 100 µM. It also gave an EC50 (Human betaherpesvirus 5) of 32.1 µM.

In the case of `NC1=Nc2c(ncn2C[Se]CCO)C(N)N1` (stereo not given), the EC50 (Human alphaherpesvirus 1) is reported as 15.4 µM, the EC50 (Human alphaherpesvirus 2) is reported as 32.2 µM and the EC50 (Human alphaherpesvirus 3) is reported as > 100 µM. For the same compound, the EC50 (Human betaherpesvirus 5) was > 100 µM.

Work on `N#Cc1cccc(-c2ccc(=O)n(Cc3cccc(-c4ncc([Se]CCCN5CCOCC5)cn4)c3)n2)c1` yielded an IC50 (MHCC97H) of 0.029 µM and an IC50 [16] of 0.117 µM.

`CN(C)CCC[Se]c1cnc(-c2cccc(Cn3nc(-c4cccc(C#N)c4)ccc3=O)c2)nc1` showed an IC50 (MHCC97H) of 0.01 µM.

In the case of `Cc1cc(=O)[nH]c(=S)[nH]1` [METHYLTHIOURACIL], the IC50 [3] is reported as 66.7 µM.

`O=c1[nH]cc(F)c(=O)[nH]1` [FLUOROURACIL] showed an IC50 (OVCAR-3) of 18.9 µM, an IC50 [1] of 26.4 µM and an IC50 (ES-2) of 25.9 µM. It also gave an IC50 [2] of 48.4 µM and an IC50 (HEK-293T) of 56.2 µM.

With `NC1=Nc2c(ncn2C[Se]C(CO)CO)C(NC2CC2)N1` (stereo not given) the EC50 (Human alphaherpesvirus 1) was > 100 µM, the EC50 (Human alphaherpesvirus 2) was > 100 µM and the EC50 (Human alphaherpesvirus 3) was > 100 µM. For the same compound, the EC50 (Human betaherpesvirus 5) was 41.1 µM.

`Cn1cc[nH]c1=[Se]` gave an IC50 [3] of 49.1 µM and an Activity [12] of 66%.

In the case of `C=C1N(C)C=CN1CCCCn1ccn(C)c1=[Se]`, the Activity [12] is reported as 56%.

Work on `C=Cn1ccn(C)c1=[Se]` yielded an Activity [12] of 71%.
